Source: patent US7820716B2 (Mai De Ltd, priority 2007, dated 2010)

How the values were obtained:
serotonin uptake = conditions: background statement; cited from earlier work
norepinephrine uptake = conditions: background statement; cited from earlier work
[1] = Stability study of bulk material, stability-indicating HPLC; type: physicochemical
Experimental: Changes are monitored using a stability-indicating HPLC method. Results were calculated by normalized peak area (npa). Degradants are identified by comparison of their relative retention times against impurity standards.

| Compound | serotonin uptake (serotonin uptake) | norepinephrine uptake (norepinephrine uptake) | polymorph and chemical stability demonstrated ([1]; elevated temperatures and humidity (40° C./75%)) [months] | polymorph stability and formation of known and unknown degradants ([1]; stored for over 3 to 6 months under normal conditions of temperature and humidity) |
| --- | --- | --- | --- | --- |
| CN(C)CC(c1ccc(O)cc1)C1(O)CCCCC1 (stereo not shown) [O-desmethyl venlafaxine] | inhibit | inhibit |  |  |
| (1-[2-(dimethylamino)-1-(4-phenol)ethyl]-cyclohexanol succinate [Form V] |  |  | 2 | stable |
